The values below come from patent publication US20260184712A1, “Heterocyclic Compounds as ENT Inhibitors and Compounds for Use in the Treatment of Cancers” (iTeos Belgium SA, priority 2022, published 2026).

Molecules are shown by their SMILES.

The target of this assay is T1, human ENT1 (Homo sapiens, UniProt Q99808).
T1 construct: JAR cells expressing ENT1 were purchased from ATCC; host or cells: JAR cells
T1 sequence (Q99808 1-456): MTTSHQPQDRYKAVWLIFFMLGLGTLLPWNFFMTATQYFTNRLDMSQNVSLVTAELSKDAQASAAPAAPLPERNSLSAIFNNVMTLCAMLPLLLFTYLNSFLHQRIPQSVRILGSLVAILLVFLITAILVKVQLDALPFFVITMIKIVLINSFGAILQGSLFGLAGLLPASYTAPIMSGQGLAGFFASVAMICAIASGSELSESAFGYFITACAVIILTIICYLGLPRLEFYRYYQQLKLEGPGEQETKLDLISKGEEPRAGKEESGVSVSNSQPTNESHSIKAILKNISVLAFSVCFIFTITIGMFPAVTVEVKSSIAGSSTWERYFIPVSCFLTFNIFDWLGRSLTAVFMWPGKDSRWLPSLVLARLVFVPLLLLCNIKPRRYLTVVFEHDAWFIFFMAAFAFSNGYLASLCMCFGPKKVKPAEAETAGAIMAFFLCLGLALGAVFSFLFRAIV
The experiment in a line: ENT1 binding assay (competition with Sahenta-DY647 on JAR cells). The note with it: competition with SAHENTA-DY647 binding; IC50 categorized; read-out: Binding Assay IC50. Put shortly: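 Fluorescent-tracer displacement: compound incubated with JAR cells 30 min, 4 °C, before Sahenta-DY647 (100 nM) for another 30 min, 4 °C, in Hepes-buffered HBSS with 0.1% BSA. Bound tracer read at 670 nm after washes; IC50 from four-parameter fit, reported as mean of pIC50 values.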
A word on the IC50: it is the concentration that inhibits the measured activity by half. As for `C[C@H]1O[C@@H](n2cnc3c(C(=O)NCc4ccc([N+](=O)[O-])cc4)ncnc32)[C@H](O)[C@@H]1O` [Compound 312], the IC50 is above 500 nM. Under `C[C@H]1O[C@@H](n2cnc3c(OCc4ccc5c(c4)OCC5)ncnc32)[C@H](O)[C@@H]1O` [Compound 313] stands above 500 nM; under `C[C@H]1O[C@@H](n2cnc3c(OCc4ccc(-n5cncn5)cc4)ncnc32)[C@H](O)[C@@H]1O` [Compound 314], above 500 nM. In the case of `C[C@H]1O[C@@H](n2cnc3c(N4CCC(c5ccc([N+](=O)[O-])cc5)C4)ncnc32)[C@H](O)[C@@H]1O` (stereo partly shown) [Compound 315], the IC50 is above 500 nM. For `C[C@H]1O[C@@H](n2cnc3c(OCc4ccc(-n5ccnc5)cc4)ncnc32)[C@H](O)[C@@H]1O` [Compound 316], the IC50 is above 500 nM.

`C[C@H]1O[C@@H](n2cnc3c(CN4Cc5ccc(C#N)cc5C4)ncnc32)[C@H](O)[C@@H]1O` [Compound 317]: the IC50 was above 500 nM.

On to `C[C@H]1O[C@@H](n2cnc3c(NCc4cccc(C(F)F)c4)ncnc32)[C@H](O)[C@@H]1O` [Compound 318], for which the IC50 was above 500 nM. For `C[C@H]1O[C@@H](n2cnc3c(OCCc4ccc(C#N)nc4)ncnc32)[C@H](O)[C@@H]1O` [Compound 319], the IC50 was above 500 nM. Regarding `Cc1ccc(CNc2ncnc3c2ncn3[C@@H]2O[C@H](C)[C@@H](O)[C@H]2O)cc1C` [Compound 320], the IC50 is above 500 nM. Regarding `C[C@H]1O[C@@H](n2cnc3c(OCc4cscn4)ncnc32)[C@H](O)[C@@H]1O` [Compound 321], the IC50 is above 500 nM. In the case of `C[C@H]1O[C@@H](n2cnc3c(NCc4ccc5c(c4)CCC5)ncnc32)[C@H](O)[C@@H]1O` [Compound 322], the IC50 is above 500 nM. Turning to `C[C@H]1O[C@@H](n2cnc3c(OCc4ccccc4C(F)(F)F)ncnc32)[C@H](O)[C@@H]1O` [Compound 323], the IC50 is above 500 nM. For `C[C@H]1O[C@@H](n2cnc3c(N(C)CCc4ccc([N+](=O)[O-])cc4)ncnc32)[C@H](O)[C@@H]1O` [Compound 324], the IC50 is above 500 nM. Take `COc1ccccc1COc1ncnc2c1ncn2[C@@H]1O[C@H](C)[C@@H](O)[C@H]1O` [Compound 325]: the IC50 was above 500 nM.

With `C[C@H]1O[C@@H](n2cnc3c(NCc4ccc(-n5ccnn5)cc4)ncnc32)[C@H](O)[C@@H]1O` [Compound 326], the concentration for half-maximal inhibition (IC50) was above 500 nM. On to `C[C@H]1O[C@@H](n2cnc3c(N[C@H]4C[C@@H]4c4ccc(Cl)cc4)ncnc32)[C@H](O)[C@@H]1O` [Compound 327], for which the IC50 is above 500 nM. Then `C[C@H]1O[C@@H](n2cnc3c(OCc4ccc(-n5cccn5)cc4)ncnc32)[C@H](O)[C@@H]1O` [Compound 328], with above 500 nM; and `CN(C)C(=O)[C@H]1O[C@@H](n2cnc3c(OCc4ccc([N+](=O)[O-])cc4)ncnc32)[C@H](O)[C@@H]1O` [Compound 329], with above 500 nM; and `C[C@H]1O[C@@H](n2cnc3c(C(=O)NCc4ccc(Cl)cc4F)ncnc32)[C@H](O)[C@@H]1O` [Compound 330], with above 500 nM.

`Cc1cccc(C)c1CNc1ncnc2c1ncn2[C@@H]1O[C@H](C)[C@@H](O)[C@H]1O` [Compound 331]: the IC50 was above 500 nM. Then `C[C@H]1O[C@@H](n2cnc3c(OCc4cccc(S(C)(=O)=O)c4)ncnc32)[C@H](O)[C@@H]1O` [Compound 332], with above 500 nM; and `C[C@H]1O[C@@H](n2cnc3c(OCc4ccc5cnn(C)c5c4)ncnc32)[C@H](O)[C@@H]1O` [Compound 333], with above 500 nM. Turning to `C[C@H]1O[C@@H](n2cnc3c(NCc4ccc(S(N)(=O)=O)cc4)ncnc32)[C@H](O)[C@@H]1O` [Compound 334], the IC50 was above 500 nM.

As for `C[C@H]1O[C@@H](n2cnc3c(NCc4cccc(OC(F)(F)F)c4)ncnc32)[C@H](O)[C@@H]1O` [Compound 335], the IC50 is above 500 nM.

Take `C[C@H]1O[C@@H](n2cnc3c(OCCc4ccc(OCF)nc4)ncnc32)[C@H](O)[C@@H]1O` [Compound 336]: the IC50 was above 500 nM. `C[C@H]1O[C@@H](n2cnc3c(SCc4ncc(F)cc4F)ncnc32)[C@H](O)[C@@H]1O` [Compound 337]: the IC50 was above 500 nM.

Turning to `Cc1nc2ccc(COc3ncnc4c3ncn4[C@@H]3O[C@H](C)[C@@H](O)[C@H]3O)cc2o1` [Compound 338], the IC50 was above 500 nM. Then `Cc1cc2cc(CNc3ncnc4c3ncn4[C@@H]3O[C@H](C)[C@@H](O)[C@H]3O)ccc2[nH]1` [Compound 339], with above 500 nM; and `Cc1cc(C)c(COc2ncnc3c2ncn3[C@@H]2O[C@H](C)[C@@H](O)[C@H]2O)c(C)c1` [Compound 340], with above 500 nM; and `C[C@H]1O[C@@H](n2cnc3c(C(=O)Nc4ccc([N+](=O)[O-])cc4)ncnc32)[C@H](O)[C@@H]1O` [Compound 341], with above 500 nM. `C[C@H]1O[C@@H](n2cnc3c(SCc4ccc5ccccc5n4)ncnc32)[C@H](O)[C@@H]1O` [Compound 342]: the IC50 was above 500 nM. Turning to `C[C@H]1O[C@@H](n2cnc3c(OCCc4ccc(OCF)cc4)ncnc32)[C@H](O)[C@@H]1O` [Compound 343], the IC50 was above 500 nM. `C[C@H]1O[C@@H](n2cnc3c(OCCc4ccc(S(C)(=O)=O)cc4)ncnc32)[C@H](O)[C@@H]1O` [Compound 344]: the IC50 was above 500 nM. As for `Cc1c(N[C@@H]2O[C@H](C)[C@@H](O)[C@H]2O)ncnc1OCCc1ccc([N+](=O)[O-])cc1` [Compound 345], the IC50 was above 500 nM. As to `COc1ccc(COc2ncnc3c2ncn3[C@@H]2O[C@H](C)[C@@H](O)[C@H]2O)cc1OC1CCCC1` [Compound 346], the IC50 was above 500 nM. Under `C[C@H]1O[C@@H](n2cnc3c(OCCc4cnc(C#N)nc4)ncnc32)[C@H](O)[C@@H]1O` [Compound 347] stands above 500 nM; under `Cc1cc(CSc2ncnc3c2ncn3[C@@H]2O[C@H](C)[C@@H](O)[C@H]2O)no1` [Compound 348], above 500 nM. Under `C[C@H]1O[C@@H](n2cnc3c(OCCc4ccc(OC(F)(F)F)nc4)ncnc32)[C@H](O)[C@@H]1O` [Compound 349] stands above 500 nM; under `CCOc1ccc(CNC(=O)c2ncnc3c2ncn3[C@@H]2O[C@H](C)[C@@H](O)[C@H]2O)cc1` [Compound 350], above 500 nM. Then `C[C@H]1O[C@@H](n2cnc3c(C(=O)NCc4ccc5c(ccn5C)c4)ncnc32)[C@H](O)[C@@H]1O` [Compound 351], with above 500 nM. `C[C@H]1O[C@@H](n2cnc3c(NCc4cccc(-n5cccn5)c4)ncnc32)[C@H](O)[C@@H]1O` [Compound 352]: the IC50 was above 500 nM. `C[C@H]1O[C@@H](n2cnc3c(C(=O)NCc4ccc(Cl)cc4)ncnc32)[C@H](O)[C@@H]1O` [Compound 353]: the IC50 is above 500 nM. Regarding `C[C@H]1O[C@@H](n2c(N)nc3c(OCc4ccccc4)ncnc32)[C@H](O)[C@@H]1O` [Compound 355], the half-inhibitory concentration (IC50) was above 500 nM. For the compound `C[C@H]1O[C@@H](n2cnc3c(OCCc4cnc(OCF)nc4)ncnc32)[C@H](O)[C@@H]1O` [Compound 356], the concentration for half-maximal inhibition (IC50) was above 500 nM. Turning to `C[C@H]1O[C@@H](n2cnc3c(NCc4ccccc4C#N)ncnc32)[C@H](O)[C@@H]1O` [Compound 357], the IC50 was above 500 nM. For `C[C@H]1O[C@@H](n2cnc3c(OCc4ccccc4-n4cccn4)ncnc32)[C@H](O)[C@@H]1O` [Compound 358], the IC50 is above 500 nM.
